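Briefly, cells in 96-well plates were exposed to five compound concentrations for 48 h, and endpoints were estimated by linear interpolation. GI50 marks 50% less growth. At the TGI there is no net growth.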
Legend:
Assay in all cases: NCI anticancer screen, dose series, 48 h
[1] = tested on: 786-0 renal
[2] = tested on: COLO 205 colon
[3] = tested on: OVCAR-3 ovarian
[4] = tested on: OVCAR-5 ovarian
[5] = tested on: HCC-2998 colon
[6] = tested on: MDA-MB-435
[7] = tested on: SNB-19 CNS
[8] = tested on: RXF 393 renal
[9] = tested on: UO-31 renal
[10] = tested on: NCI-H460 lung

SMILES | GI50 [1] [µM] | TGI [1] [µM] | GI50 [2] [µM] | TGI [2] [µM] | GI50 [3] [µM] | TGI [3] [µM] | GI50 [4] [µM] | TGI [4] [µM] | GI50 [5] [µM] | TGI [5] [µM] | GI50 [6] [µM] | TGI [6] [µM] | GI50 [7] [µM] | TGI [7] [µM] | GI50 [8] [µM] | TGI [8] [µM] | GI50 [9] [µM] | TGI [9] [µM] | GI50 [10] [µM] | TGI [10] [µM]
CCN(CC)c1ccc(/C=N/NC(=O)c2ccccc2Nc2ccnc(C(F)(F)F)c2)c(O)c1 | 0.183 | 0.984 | 0.212 | > 100 | 0.0845 | > 100 | 0.377 | > 100 | 0.192 | > 100 | 0.428 | > 100 | 0.363 | > 100 | 0.226 | > 24.6 | 0.112 | 5.76 | 0.0681 | > 23.4
NC(Cc1c[nH]c2cc(F)ccc12)C(=O)O (centres undefined) | 1080 | > 2500 | 1120 | > 2500 | 792 | > 2500 | 1090 | > 2500 | 1640 | > 2500 | 840 | > 2500 | 1440 | > 2500 | 1450 | > 2500 |  | > 2500 | 768 | > 2500

— PubChem BioAssay (NCI)
